Measurements as given in PMC9962964, “^68Ga-Labeled [Thz^14]Bombesin(7–14) Analogs: Promising GRPR-Targeting Agonist PET Tracers with Low Pancreas Uptake” (Molecules, 2023).
Like-named read-outs stand apart in the source and are kept apart here.

Tests used:
[1] = pH 7.4
Method: Briefly, aliquots (2 μL) of the ^68Ga-labeled peptides were added into a 15 mL falcon tube containing 3 mL of n-octanol and 3 mL of 0.1 mol/L DPBS (pH 7.4). The mixture was vortexed for 1 min and then centrifuged at 3000 rpm for 15 min. Samples of the n-octanol (1 mL) and buffer (1 mL) layers were collected and measured in a gamma counter. LogD7.4 was calculated using the following equation: LogD7.4 = log10 [(counts in the n-octanol phase)/(counts in the buffer phase)].

PC-3 tumor xenografts [2] = assay: Ex vivo biodistribution in PC-3 tumor-bearing mice; parameters: species or system NRG mice
Method: (§1) For biodistribution studies, the mice were injected with the radiotracer (2–4 MBq) via the tail vein as described above. For blocking, the mice were co-injected with 100 μg of [D-Phe^6,Leu-NHEt^13,des-Met^14]Bombesin(6–14). At 1 h post-injection, the mice were anesthetized through isoflurane inhalation and euthanized through CO2 inhalation. Blood was collected through a cardiac puncture, and organs/tissues of interest were collected, weighed, and counted using a Perkin Elmer (Waltham, MA, USA) Wizard2 2480 automatic gamma counter.

[3] = Ex vivo biodistribution in PC-3 tumor-bearing mice; parameters: species or system NRG mice; conditions: mouse; for tissue to tissue ratio at 1 h: male, NRG (NOD.Cg-Rag1^tm1Mom Il2rg^tm1Wjl/SzJ), iv, total radioactivity; for tissue uptake at 1 h: intravenous
Method: as §1

[4] = 15 min post-injection
Method: PET/CT imaging, biodistribution, and in vivo stability studies were conducted on male NOD.Cg-Rag1^tm1Mom Il2rg^tm1Wjl/SzJ (NRG) mice, following previously published procedures. The experiments were conducted according to the guidelines established by the Canadian Council on Animal Care and approved by the Animal Ethics Committee of the University of British Columbia (protocol number A20-0113, approved on 30 September 2020). […] Mice were used for PET/CT imaging and biodistribution studies when the tumor grew to 5–8 mm in diameter over around 4 weeks.
At 15 min post-injection, mice were sedated and euthanized, and urine and blood were collected. The plasma was extracted from whole blood by adding CH3CN (500 μL), vortex, centrifugation, and the separation of supernatant. The plasma and urine samples were analyzed via radio-HPLC using the conditions for quality control of these ^68Ga-labeled radioligands (Table S3).

PC-3 tumor xenografts [5] = assay: PET/CT imaging of PC-3 tumor xenografts; type: in vivo, NRG mice; conditions: 1 h post-injection
Method: PET/CT imaging experiments were performed on a Siemens (Knoxville, TN) Inveon micro PET/CT scanner. The tumor-bearing mouse was injected with 3–5 MBq of ^68Ga-labeled tracer through a lateral caudal tail vein under anesthesia, followed by recovery and roaming freely in its cage during the uptake period. At 50 min post-injection, a 10 min CT scan was conducted first for the localization and attenuation correction after segmentation for reconstructing the PET images, followed by a 10 min static PET imaging acquisition.

[6] = co-injection of 100 μg [D-Phe6,Leu-NHEt13,des-Met14]Bombesin(6–14), 1 h post-injection

For `CC(C)C[C@H](NC(=O)[C@H](Cc1c[nH]cn1)NC(=O)CNC(=O)[C@@H](NC(=O)[C@H](C)NC(=O)[C@H](Cc1c[nH]c2ccccc12)NC(=O)[C@H](CCC(N)=O)NC(=O)[C@@H](Cc1ccccc1)NC(=O)CN1CCC(NC(=O)CN2CCN(CC(=O)O)CCN(CC(=O)O)CCN(CC(=O)O)CC2)CC1)C(C)C)C(=O)N1CSC[C@H]1C(N)=O` [[^68Ga]Ga-TacBOMB2, metal not drawn], the logD [1] was -3.21 ± 0.03, the Tumor/blood uptake ratio (PC-3 tumor xenografts [2]; 1 h blocked: co-injected with 100 µg of [D-Phe6,Leu-NHEt13,des-Met14]Bombesin(6-14), n = 4) was 1.71 ± 0.18 and the “reduction of average uptake in PC-3 tumor xenografts by co-injection of blocker” value (PC-3 tumor xenografts [2]; [6]) was 85%. For the same compound, the “reduction of average uptake in pancreas by co-injection of blocker” value (PC-3 tumor xenografts [2]; [6]) was 88%, the “reduction of average uptake in stomach by co-injection of blocker” value (PC-3 tumor xenografts [2]; [6]) was 76% and the tissue to tissue ratio at 1 h ([3]; tumor and bone, 1 h blocked: co-injected with 100 µg of [D-Phe6,Leu-NHEt13,des-Met14]Bombesin(6-14), n = 4, read-out: Tumor/bone uptake ratio) was 8.94 ± 1.49. The tissue to tissue ratio at 1 h ([3]; tumor and bone, 1 h post-injection, n = 4, read-out: Tumor/bone uptake ratio) was 28.9 ± 18.3, the tissue to tissue ratio at 1 h ([3]; tumor and intestines, 1 h blocked: co-injected with 100 µg of [D-Phe6,Leu-NHEt13,des-Met14]Bombesin(6-14), n = 4, read-out: Tumor/intestines uptake ratio) was 3.33 ± 0.67 and the tissue to tissue ratio at 1 h ([3]; tumor and intestines, 1 h post-injection, n = 4, read-out: Tumor/intestines uptake ratio) was 10.5 ± 3.06. For the same compound, the tissue to tissue ratio at 1 h ([3]; tumor and kidney, 1 h blocked: co-injected with 100 µg of [D-Phe6,Leu-NHEt13,des-Met14]Bombesin(6-14), n = 4, read-out: Tumor/kidney uptake ratio) was 0.47 ± 0.04, the tissue to tissue ratio at 1 h ([3]; tumor and kidney, 1 h post-injection, n = 4, read-out: Tumor/kidney uptake ratio) was 2.46 ± 0.33 and the tissue to tissue ratio at 1 h ([3]; tumor and muscle, 1 h blocked: co-injected with 100 µg of [D-Phe6,Leu-NHEt13,des-Met14]Bombesin(6-14), n = 4, read-out: Tumor/muscle uptake ratio) was 7.14 ± 1.4. For the same compound, the tissue to tissue ratio at 1 h ([3]; tumor and muscle, 1 h post-injection, n = 4, read-out: Tumor/muscle uptake ratio) was 57.9 ± 32.8, the tissue to tissue ratio at 1 h ([3]; tumor and pancreas, 1 h blocked: co-injected with 100 µg of [D-Phe6,Leu-NHEt13,des-Met14]Bombesin(6-14), n = 4, read-out: Tumor/pancreas uptake ratio) was 6.22 ± 0.67 and the tissue to tissue ratio at 1 h ([3]; tumor and pancreas, 1 h post-injection, n = 4, read-out: Tumor/pancreas uptake ratio) was 4.64 ± 0.77. It also gave a tissue to tissue ratio at 1 h ([3]; tumor and whole blood, 1 h post-injection, n = 4, read-out: Tumor/blood uptake ratio) of 16.4 ± 5.64, a tissue uptake at 1 h ([3]; PC-3 tumor, 100 ug, 1 h blocked: co-injected with 100 µg of [D-Phe6,Leu-NHEt13,des-Met14]Bombesin(6-14), n = 4, read-out: PC-3 tumor uptake) of 0.92 ± 0.22 %ID/g and a tissue uptake at 1 h ([3]; PC-3 tumor, 1 h post-injection, n = 4, read-out: PC-3 tumor uptake) of 5.95 ± 0.5 %ID/g. It also gave a tissue uptake at 1 h ([3]; blood, 100 ug, 1 h blocked: co-injected with 100 µg of [D-Phe6,Leu-NHEt13,des-Met14]Bombesin(6-14), n = 4, read-out: Blood uptake) of 0.55 ± 0.19 %ID/g, a tissue uptake at 1 h ([3]; blood, 1 h post-injection, n = 4, read-out: Blood uptake) of 0.39 ± 0.12 %ID/g and a tissue uptake at 1 h ([3]; bone, 100 ug, 1 h blocked: co-injected with 100 µg of [D-Phe6,Leu-NHEt13,des-Met14]Bombesin(6-14), n = 4, read-out: Bone uptake) of 0.1 ± 0.03 %ID/g. For the same compound, the tissue uptake at 1 h ([3]; bone, 1 h post-injection, n = 4, read-out: Bone uptake) was 0.26 ± 0.11 %ID/g, the tissue uptake at 1 h ([3]; brain, 100 ug, 1 h blocked: co-injected with 100 µg of [D-Phe6,Leu-NHEt13,des-Met14]Bombesin(6-14), n = 4, read-out: Brain uptake) was 0.02 %ID/g and the tissue uptake at 1 h ([3]; brain, muscle, fat, bone, liver, stomach, heart, and spleen, 1 h post-injection, read-out: Uptake values for the brain, muscle, fat, bone, liver, stomach, heart, and spleen) was < 1 %ID/g. The tissue uptake at 1 h ([3]; fat, 100 ug, 1 h blocked: co-injected with 100 µg of [D-Phe6,Leu-NHEt13,des-Met14]Bombesin(6-14), n = 4, read-out: Fat uptake) was 0.07 ± 0.02 %ID/g, the tissue uptake at 1 h ([3]; fat, 1 h post-injection, n = 4, read-out: Fat uptake) was 0.1 ± 0.03 %ID/g and the tissue uptake at 1 h ([3]; heart, 100 ug, 1 h blocked: co-injected with 100 µg of [D-Phe6,Leu-NHEt13,des-Met14]Bombesin(6-14), n = 4, read-out: Heart uptake) was 0.16 ± 0.04 %ID/g. For the same compound, the tissue uptake at 1 h ([3]; heart, 1 h post-injection, n = 4, read-out: Heart uptake) was 0.14 ± 0.02 %ID/g, the tissue uptake at 1 h ([3]; intestines, 100 ug, 1 h blocked: co-injected with 100 µg of [D-Phe6,Leu-NHEt13,des-Met14]Bombesin(6-14), n = 4, read-out: Intestines uptake) was 0.28 ± 0.07 %ID/g and the tissue uptake at 1 h ([3]; intestines, 1 h post-injection, n = 4, read-out: Intestines uptake) was 0.6 ± 0.12 %ID/g. The tissue uptake at 1 h ([3]; kidneys, 100 ug, 1 h blocked: co-injected with 100 µg of [D-Phe6,Leu-NHEt13,des-Met14]Bombesin(6-14), n = 4, read-out: Kidneys uptake) was 1.99 ± 0.59 %ID/g, the tissue uptake at 1 h ([3]; kidneys, 1 h post-injection, n = 4, read-out: Kidneys uptake) was 2.43 ± 0.16 %ID/g and the tissue uptake at 1 h ([3]; lungs, 100 ug, 1 h blocked: co-injected with 100 µg of [D-Phe6,Leu-NHEt13,des-Met14]Bombesin(6-14), n = 4, read-out: Lungs uptake) was 0.39 ± 0.1 %ID/g. The tissue uptake at 1 h ([3]; lungs, 1 h post-injection, n = 4, read-out: Lungs uptake) was 0.39 ± 0.1 %ID/g, the tissue uptake at 1 h ([3]; pancreas, 100 ug, 1 h blocked: co-injected with 100 µg of [D-Phe6,Leu-NHEt13,des-Met14]Bombesin(6-14), n = 4, read-out: Pancreas uptake) was 0.15 ± 0.03 %ID/g and the tissue uptake at 1 h ([3]; pancreas, 1 h post-injection, n = 4, read-out: Pancreas uptake) was 1.3 ± 0.14 %ID/g. It also gave a tissue uptake at 1 h ([3]; spleen, 100 ug, 1 h blocked: co-injected with 100 µg of [D-Phe6,Leu-NHEt13,des-Met14]Bombesin(6-14), n = 4, read-out: Spleen uptake) of 0.18 ± 0.05 %ID/g, a tissue uptake at 1 h ([3]; spleen, 1 h post-injection, n = 4, read-out: Spleen uptake) of 0.27 ± 0.1 %ID/g and a tissue uptake at 1 h ([3]; stomach, 100 ug, 1 h blocked: co-injected with 100 µg of [D-Phe6,Leu-NHEt13,des-Met14]Bombesin(6-14), n = 4, read-out: Stomach uptake) of 0.13 ± 0.06 %ID/g. The tissue uptake at 1 h ([3]; testes, 100 ug, 1 h blocked: co-injected with 100 µg of [D-Phe6,Leu-NHEt13,des-Met14]Bombesin(6-14), n = 4, read-out: Testes uptake) was 0.21 ± 0.16 %ID/g, the “intact fraction in plasma” value ([4]; mouse plasma, n = 3) was 12.7 ± 2.93% and the “intact tracer in urine” value ([4]; mouse urine) was “no intact”. The “visualization of PC-3 tumor xenografts in PET images” value (PC-3 tumor xenografts [5]) was “clearly visualized” and the excretion pathway (PC-3 tumor xenografts [5]; PET images) was “primarily excreted via the renal pathway”.
